Reference: patent US20200017496A1 (priority 2017, published 2020)
Like-named read-outs stand apart in the source and are kept apart here.

System: Klebsiella pneumoniae (KPN) isolates
Assay: MIC of compounds alone and combined with antibacterials, broth microdilution (CLSI)
Type: cell-based
Details: Klebsiella pneumoniae, read-out: MIC
Outline: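 Inoculum 5·10^5 CFU/mL (final), log phase, ca-MHB; 16-20 h, 35° C, ambient air. MIC = lowest conc. with no visible growth; ATB MIC read at each compound level.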

## C=CC1=C(C(=O)O)N2C(=O)[C@@H](NC(=O)/C(=N\OCC(=O)O)c3csc(N)n3)[C@H]2SC1 [FIX, Cefixime]
KPN 190270, alone
  MIC: > 128 µg/mL
KPN UFR25, alone
  MIC: > 128 µg/mL
KPN UFR66, alone
  MIC: 512 µg/mL
KPN UFR68, alone
  MIC: > 128 µg/mL
Strain KPN 6299 (TEM-1, SHV-11, OXA-163), ATB alone
  MIC: 8 µg/mL
Strain KPN 6299 (TEM-1, SHV-11, OXA-163), CLA @ 4 μg/ml+ ATB
  MIC: 8 µg/mL
Strain KPN 110376 (TEM-1, SHV-1, CTX-M-15, OXA-1, OXA-48), ATB alone
  MIC: > 128 µg/mL
Strain KPN 110376 (TEM-1, SHV-1, CTX-M-15, OXA-1, OXA-48), CLA @ 4 μg/ml+ ATB
  MIC: 128 µg/mL
Strain KPN 131119 (TEM-1, SHV-11, CTX-M-15, OXA-1, OXA-48), ATB alone
  MIC: > 128 µg/mL
Strain KPN 131119 (TEM-1, SHV-11, CTX-M-15, OXA-1, OXA-48), CLA @ 4 μg/ml+ ATB
  MIC: > 128 µg/mL
Strain KPN 140513 (TEM-1, SHV-11, CTX-M-15, KPC-3), ATB alone
  MIC: > 128 µg/mL
Strain KPN 140513 (TEM-1, SHV-11, CTX-M-15, KPC-3), CLA @ 4 μg/ml+ ATB
  MIC: > 128 µg/mL
Strain KPN 160143 (TEM-1, SHV-1, CTX-M-15, KPC-2, OXA-1), ATB alone
  MIC: > 128 µg/mL
Strain KPN 160143 (TEM-1, SHV-1, CTX-M-15, KPC-2, OXA-1), CLA @ 4 μg/ml+ ATB
  MIC: 2 µg/mL
Strain KPN 190128 (TEM-1, SHV-32, CTX-M-15, OXA-1), ATB alone
  MIC: > 128 µg/mL
Strain KPN 190128 (TEM-1, SHV-32, CTX-M-15, OXA-1), CLA @ 4 μg/ml+ ATB
  MIC: 0.5 µg/mL
Strain KPN 190270 (TEM-1, SHV-76, CTX-M-15, OXA-1), ATB alone
  MIC: > 128 µg/mL
Strain KPN 190270 (TEM-1, SHV-76, CTX-M-15, OXA-1), CLA @ 4 μg/ml+ ATB
  MIC: 1 µg/mL
Strain KPN 190425 (TEM-1, SHV-1, CTX-M-15, OXA-1), ATB alone
  MIC: > 128 µg/mL
Strain KPN 190425 (TEM-1, SHV-1, CTX-M-15, OXA-1), CLA @ 4 μg/ml+ ATB
  MIC: ≤ 0.25 µg/mL
Strain KPN 190551 (TEM-1, SHV-1, CTX-M-15, OXA-1), ATB alone
  MIC: > 128 µg/mL
Strain KPN 190551 (TEM-1, SHV-1, CTX-M-15, OXA-1), CLA @ 4 μg/ml+ ATB
  MIC: ≤ 0.25 µg/mL
Strain KPN 200047 (TEM-1, SHV-32, CTX-M-15, OXA-1), ATB alone
  MIC: > 128 µg/mL
Strain KPN 200047 (TEM-1, SHV-32, CTX-M-15, OXA-1), CLA @ 4 μg/ml+ ATB
  MIC: ≤ 0.25 µg/mL
Strain KPN 200327 (TEM-1, SHV-1, CTX-M-15, OXA-1), ATB alone
  MIC: 64 µg/mL
Strain KPN 200327 (TEM-1, SHV-1, CTX-M-15, OXA-1), CLA @ 4 μg/ml+ ATB
  MIC: ≤ 0.25 µg/mL
Strain KPN 260251 (TEM-1, SHV-11, SHV-12, CTX-M-15, KPC-2), ATB alone
  MIC: > 128 µg/mL
Strain KPN 260251 (TEM-1, SHV-11, SHV-12, CTX-M-15, KPC-2), CLA @ 4 μg/ml+ ATB
  MIC: 32 µg/mL
Strain KPN 260252 (TEM-1, SHV-11, KPC-3), ATB alone
  MIC: > 128 µg/mL
Strain KPN 260252 (TEM-1, SHV-11, KPC-3), CLA @ 4 μg/ml+ ATB
  MIC: 128 µg/mL
Strain KPN 260376 (SHV-1, SHV-49, OXA-1), ATB alone
  MIC: > 128 µg/mL
Strain KPN 260376 (SHV-1, SHV-49, OXA-1), CLA @ 4 μg/ml+ ATB
  MIC: ≤ 0.25 µg/mL
Strain KPN 270077 (TEM-1, SHV-1, CTX-M-15), ATB alone
  MIC: > 128 µg/mL
Strain KPN 270077 (TEM-1, SHV-1, CTX-M-15), CLA @ 4 μg/ml+ ATB
  MIC: 0.5 µg/mL
Strain KPN 700603 (SHV-18, OXA-2), ATB alone
  MIC: 16 µg/mL
Strain KPN 700603 (SHV-18, OXA-2), CLA @ 4 μg/ml+ ATB
  MIC: 0.5 µg/mL
Strain KPN ARA (TEM-1, SHV-11, CTX-M-15, OXA-1, OXA-48), ATB alone
  MIC: > 128 µg/mL
Strain KPN ARA (TEM-1, SHV-11, CTX-M-15, OXA-1, OXA-48), CLA @ 4 μg/ml+ ATB
  MIC: 128 µg/mL
Strain KPN LIB (SHV-11, OXA-48), ATB alone
  MIC: ≤ 0.25 µg/mL
Strain KPN LIB (SHV-11, OXA-48), CLA @ 4 μg/ml+ ATB
  MIC: ≤ 0.25 µg/mL
Strain KPN UFR22_O (TEM-1, SHV-1, OXA-48), ATB alone
  MIC: ≤ 0.25 µg/mL
Strain KPN UFR22_O (TEM-1, SHV-1, OXA-48), CLA @ 4 μg/ml+ ATB
  MIC: ≤ 0.25 µg/mL
Strain KPN UFR23 (TEM-1, SHV-1, OXA-48), ATB alone
  MIC: ≤ 0.25 µg/mL
Strain KPN UFR23 (TEM-1, SHV-1, OXA-48), CLA @ 4 μg/ml+ ATB
  MIC: ≤ 0.25 µg/mL
Strain KPN UFR24 (TEM-1, SHV-2, SHV-11, OXA-1, OXA-48, OXA-47), ATB alone
  MIC: > 128 µg/mL
